Assay results as given in patent US8329717B2, “Pyrimidine derivatives and their use for controlling undesired plant growth” (Bayer Cropscience AG, priority 2008, dated 2012).

test: logp (HCOOH), chemicophysical data; conditions: HCOOH

SMILES | logp (HCOOH)
Cc1ccc2c(c1)[C@H](Nc1ncc(C#CCC(C)C)c(N)n1)[C@@H](C)C2 [Example 1.249] | wax-like; logp (HCOOH): 1.73; 1H-NMR (CDCl3, 400 MHZ, δ in ppm): 1.00 (d, 6H,
Cc1ccc(C2(c3nc(N[C@@H]4CCCc5ccccc54)nc(N)c3C#N)CC2)cc1 [Example 1.85] | wax-like; logp (HCOOH): 4.02; 1H-NMR (CDCl3, 400 MHZ, δ in ppm): 1.70-2.10 (br,
Cc1nc(N[C@@H]2CCCc3ccccc32)nc(N)c1C(=O)OC1CCCCC1 [Example 1.255] | wax-like; logp (HCOOH): 2.03; 1H-NMR (CDCl3, 400 MHZ, δ in ppm): 2.10-2.65 (m,
Cc1ccc2c(c1)[C@H](Nc1nccc(N)n1)[C@@H](C)C2 [Example 1.38] | wax-like; logp (HCOOH): 1.25; 1H-NMR (CDCl3, 400 MHZ, δ in ppm): 1.25 (m, 3H, CH3);
Cc1ccc2c(c1)[C@H](Nc1nc(N)c(C#N)c(C(C)C)n1)[C@@H](C)C2 [Example 1.64] | wax-like; logp (HCOOH): 3.90; 1H-NMR (CDCl3, 400 MHZ, δ in ppm): 1.25 (m, 9H,
CC(=O)OCC#Cc1cnc(N[C@H]2c3cc(C)ccc3C[C@@H]2C)nc1N [Example 1.252] | wax-like; logp (HCOOH): 1.59; 1H-NMR (CDCl3, 400 MHZ, δ in ppm): 1.25 (d, 3H, CH3);
Cc1ccc2c(c1)[C@H](Nc1ncc(C#Cc3ccc(F)c(Cl)c3)c(N)n1)[C@@H](C)C2 [Example 1.248] | wax-like; logp (HCOOH): 2.71; 1H-NMR (CDCl3, 400 MHZ, δ in ppm): 1.25 (d, 3H, CH3);
Cc1ccccc1-c1nc(N[C@@H]2CCCc3ccccc32)nc(N)c1C#N [Example 1.78] | solid; logp (HCOOH): 3.41; 1H-NMR (CDCl3, 400 MHZ, δ in ppm): 1.85-2.05 (br, 4H,
COC(=O)c1cc(N)nc(N[C@H]2c3cc(C)ccc3C[C@@H]2C)n1 [Example 1.118] | wax-like; logp (HCOOH): 2.96; 1H-NMR (CDCl3, 400 MHZ, δ in ppm): 1.30 (d, 3H, CH3);
CC1(c2nc(N[C@@H]3CCCc4ccccc43)nc(N)c2C#N)CC1 [Example 1.84] | wax-like; logp (HCOOH): 2.63; 1H-NMR (CDCl3, 400 MHZ, δ in ppm): 0.75 (m, 2H, CH2);
Cc1ccc2c(c1)[C@H](Nc1nc(C)cc(N)n1)[C@@H](C)C2 [Example 1.41] | wax-like; logp (HCOOH): 1.12; 1H-NMR (DMSO, 400 MHZ, δ in ppm): 1.15 (d, 3H, CH3);
N#Cc1c(N)nc(NC2CCCc3ccccc32)nc1C(F)(F)F (racemic) [Example 1.29] | solid; m.p.: 205.8° C.; logp (HCOOH): 3.43; 1H-NMR (CDCl3, 400 MHZ, δ in ppm): 1.85
N#Cc1c(N)nc(N[C@@H]2CCCc3ccccc32)nc1C1(c2ccc(Cl)cc2Cl)CC1 [Example 1.86] | wax-like; logp (HCOOH): 5.15; 1H-NMR (CDCl3, 400 MHZ, δ in ppm): 1.25 (br, 2H,
Cc1ccc2c(c1)[C@H](Nc1nc(N)cc(N(C)C)n1)[C@@H](C)C2 [Example 1.91] | wax-like; logp (HCOOH): 1.66; 1H-NMR (CDCl3, 400 MHZ, δ in ppm): 1.25 (d, 3H, CH3);
COc1ccc2c(c1)C(Nc1ncc(C(F)(F)F)c(N)n1)CCO2 (racemic) [Example 1.239] | wax-like; logp (HCOOH): 1.46
Cc1ccc2c(c1)C(Nc1ncc(I)c(N)n1)C(C)C2 (mixture of isomers) [Example 1.87] | wax-like; logp (HCOOH): 1.37; 1H-NMR (CDCl3, 400 MHZ, δ in ppm): 1.25 (d, 3H, CH3);
Cc1ccc2c(c1)[C@H](Nc1nc(N)c(C#N)c(-c3ccccc3C)n1)[C@@H](C)C2 [Example 1.77] | solid; logp (HCOOH): 3.83; 1H-NMR (CDCl3, 400 MHZ, δ in ppm): 1.25 (m, 3H, CH3);
CC1(C)CC(Nc2ncc(C(F)(F)F)c(N)n2)c2cc(F)c(Cl)cc2O1 (racemic) [Example 1.241] | wax-like; logp (HCOOH): 2.83; 1H-NMR (CDCl3, 400 MHZ, δ in ppm): 1.30 (s, 3H, CH3);
CC1Cc2ccc(F)cc2C1Nc1ncc(C(F)(F)F)c(N)n1 (racemic) [Example 1.243] | wax-like; logp (HCOOH): 1.93; 1H-NMR (CDCl3, 400 MHZ, δ in ppm): 0.95 (d, 3H, CH3);

SMILES | logp (HCOOH)
CCC(O)C#Cc1cnc(N[C@H]2c3cc(C)ccc3C[C@@H]2C)nc1N (some centres unmarked) [Example 1.251] | wax-like; logp (HCOOH): 1.48; 1H-NMR (CDCl3, 400 MHZ, δ in ppm): 1.00 (t, 3H, CH3);
CCc1ccc2c(c1)C(Nc1ncc(C(F)(F)F)c(N)n1)CCO2 (racemic) [Example 1.238] | wax-like; logp (HCOOH): 2.02; 1H-NMR (CDCl3, 400 MHZ, δ in ppm): 1.15 (t, 3H, CH3);
Cc1ccc2c(c1)[C@H](Nc1nc(N)cc(C(F)(F)F)n1)[C@@H](C)C2 [Example 1.214] | wax-like; logp (HCOOH): 1.59; 1H-NMR (CDCl3, 400 MHZ, δ in ppm): 1.30 (d, 3H, CH3);
Cc1cc(C)c2c(c1)C(Nc1ncc(C#N)c(N)n1)CCC2 (racemic) [Example 1.271] | wax-like; logp (HCOOH): 2.60; 1H-NMR (CDCl3, 400 MHZ, δ in ppm): 1.85 (m, 3H, 3H
Cc1nc(NC2CCc3cc(Cl)ccc32)nc(N)c1C#N (racemic) [Example 1.217] | wax-like; logp (HCOOH): 2.21; 1H-NMR (CDCl3, 400 MHZ, δ in ppm): 1.80 (m, 1H, 1H
Cc1ccc2c(c1)[C@H](Nc1ncc(C(F)(F)F)c(N)n1)[C@@H](C)C2 [Example 1.107] | wax-like, logp (HCOOH): 2.11; 1H-NMR (CDCl3, 400 MHZ, δ in ppm): 1.25 (d, 3H, CH3);
Cc1ccc2c(c1)[C@H](Nc1nc(N)c(C#N)c(C3(C)CC3)n1)[C@@H](C)C2 [Example 1.93] | wax-like; logp (HCOOH): 3.31; 1H-NMR (CDCl3, 400 MHZ, δ in ppm): 0.75 (m, 2H, CH2);
C[Si](C)(C)C#Cc1cnc(N[C@@H]2CCCc3ccccc32)nc1N [Example 1.39] | wax-like; logp (HCOOH): 1.86; 1H-NMR (CDCl3, 400 MHZ, δ in ppm): 0.25 (s, 9H, CH3);
CC(C)c1nc(N[C@@H]2CCCc3ccccc32)nc(N)c1C#N [Example 1.66] | wax-like; logp (HCOOH): 3.34; 1H-NMR (CDCl3, 400 MHZ, δ in ppm): 1.25 (m, 6H,
Cc1nc(NC2(C)CCCc3ccccc32)nc(N)c1C#N (racemic) [Example 1.224] | wax-like; logp (HCOOH): 3.37; 1H-NMR (CDCl3, 400 MHZ, δ in ppm): 1.80 (m, 1H, 1H
COC(=O)c1cc(N)nc(NC2CCCc3ccccc32)n1 (racemic) [Example 1.212] | wax-like; logp (HCOOH): 2.54; 1H-NMR (CDCl3, 400 MHZ, δ in ppm): 1.80-2.10 (m,
Cc1ccc2c(c1)[C@H](Nc1ncc(C#CCO)c(N)n1)[C@@H](C)C2 [Example 1.222] | wax-like; logp (HCOOH): 1.04; 1H-NMR (CDCl3, 400 MHZ, δ in ppm): 1.25 (d, 3H, CH3);
Nc1nc(N[C@@H]2CCc3ccccc32)ncc1C(F)(F)F [Example 1.237] | wax-like; logp (HCOOH): 1.50; 1H-NMR (CDCl3, 400 MHZ, δ in ppm): 1.80 (m, 1H, 1H
N#Cc1cnc(NC2CCc3cc(Cl)ccc32)nc1N (racemic) [Example 1.216] | wax-like; logp (HCOOH): 2.18; 1H-NMR (CDCl3, 400 MHZ, δ in ppm): 1.80 (m, 1H, 1H
Cc1nc(NC2CCOc3ccc(C(C)C)cc32)nc(N)c1C#N (racemic) [Example 1.27] | solid, m.p.: 158.8° C.; logp (HCOOH): 2.51; 1H-NMR (CDCl3, 400 MHZ, δ in ppm): 1.15
C#Cc1cnc(N[C@@H]2CCCc3ccccc32)nc1N [Example 1.116] | wax-like; logp (HCOOH): 1.09; 1H-NMR (CDCl3, 400 MHZ, δ in ppm): 1.80 (m, 3H, 3H
Cc1ccc2c(c1)[C@H](Nc1ncc(C#Cc3cccc(C(F)(F)F)c3)c(N)n1)[C@@H](C)C2 [Example 1.247] | wax-like; logp (HCOOH): 2.60; 1H-NMR (CDCl3, 400 MHZ, δ in ppm): 1.25 (d, 3H, CH3);
COc1cccc(C#Cc2cnc(N[C@H]3c4cc(C)ccc4C[C@@H]3C)nc2N)c1 [Example 1.221] | wax-like; logp (HCOOH): 1.98; 1H-NMR (CDCl3, 400 MHZ, δ in ppm): 1.25 (d, 3H, CH3);
Cc1cccc2c1CCC2Nc1ncc(C(F)(F)F)c(N)n1 (racemic) [Example 1.254] | wax-like; logp (HCOOH): 1.75; 1H-NMR (CDCl3, 400 MHZ, δ in ppm): 2.10 (s, 3H,
